From patent EP4640686A1, “DEGRADER FOR DEGRADING BRD PROTEIN AND PHARMACEUTICAL COMPOSITION CONTAINING SAME” (Innocure Therapeutics, Inc., priority 2022, dated 2024) come the findings set out here.

A word on the IC50: it is the concentration that gives 50% inhibition. In general, DC50 refers to the concentration giving 50% degradation.

What all share (assay type): cell-based
The test system of one test is RPMI2650. As to the kind of experiment: Cancer cell antiproliferative activity / cell viability in RPMI2650 cells (72 h treatment). Particulars: Homo sapiens. On the procedure: The human breast cancer cell line [MDA-MB-231] was cultured in RPMI medium with the addition of 10% fetal bovine serum, penicillin [100U/ml], and streptomycin [[…]]. The synthesized compounds were prepared with a 10 mM or 50 mM raw material solution dissolved in DMSO [dimethyl sulfoxide], and were diluted sequentially and treated. [RPMI2650] and [SNU2972] were cultivated under specific conditions.
To observe cell growth inhibition, cells were dispensed in a concentration of 5,000 cells/well in a 96-well plate, and samples prepared at various concentrations were treated for 72 hours. The IC50 value (the concentration of the compound achieving 50% cytostaticism) is the average value of the results of three independent measurements.

Another test addresses T1, BRD4-NUT (Homo sapiens, UniProt O60885+Q86Y26).
T1 construct: endogenous in cells; host or cells: RPMI2650
Put plainly: BRD4-NUT protein degradation by western blotting in RPMI2650 cells (24 h treatment). As to conditions: RPM12650, read-out: BRD4-NUT (DC50). On the procedure:
(§1) The synthesized compounds were prepared with a 10 mM or 50 mM raw material solution dissolved in DMSO [dimethyl sulfoxide], and were diluted sequentially and treated. [RPMI2650] and [SNU2972] were cultivated under specific conditions.
(§2) To evaluate the resolution of PROTAC for BRD4 expressed in cells, cells were dispensed in a concentration of 5 X 10^5 cells/well in a 6-well plate, and the sample was treated for 24 hours. […] Protein expression was normalized based on the expression value of β or GAPDH, and protein expression in each sample was measured as % based on 100% of samples treated with 0.1% DMSO vehicle. Protein expression was quantified using Image J program. Change in protein expression volume by compound treatment (DC50: concentration of compounds where 50% protein expression inhibition is achieved) was calculated using the GraphicPad Prism 8.0 software.
(A western blot detects proteins with antibodies after separation by electrophoresis.)

A further test has as its target BRD4 (Homo sapiens, UniProt O60885). Put plainly: BRD4 protein degradation by western blotting in RPMI2650 cells (24 h treatment). The arrangement: To evaluate the resolution of PROTAC for BRD4 expressed in cells; endogenous in cells; host or cells: RPMI2650. As to conditions: RPM12650, read-out: BRD4 (DC50). On the procedure: as §1, §2
[1] abbreviates: RPMI-2650, 72 h, RPM12650, read-out: Cell Viatility (IC50).
The mark [2] stands for this setting: RPMI-2650, RPM12650, read-out: Cell Viatility (IC50).

Where two headings read alike, the source gives them in different places. Where only a bound is given, the exact number is not on record here.

For the molecule `CC[C@@H]1c2nnc(C)n2-c2cnc(Nc3ccc(C(=O)NC4CCN(c5ccc(NC6CCC(=O)NC6=O)cc5F)CC4)cc3OC)nc2N1CC1CCCCC1` (stereo partly drawn) [ICT-0001566, 4-{[(4R)-5-(cyclohexylmethyl)-4-ethyl-1-methyl-4H,5H-[1,2,4]triazolo[4,3-f]pteridine-7-yl]amino}-N-(1-{4-[(2,6-dioxopiperidine-3-yl)amino]-2-fluorophenyl}piperidine-4-yl)-3-methoxybenzamide], in the test on RPMI2650 (setting [1]), the IC50 is above 1000 nM. Besides, the DC50 at BRD4-NUT and at BRD4 was below 100 nM throughout.

`CC[C@@H]1c2nnc(C)n2-c2cnc(Nc3ccc(C(=O)NC4CCN(c5ccc6c(=O)n(C7CCC(=O)NC7=O)nc(C)c6c5)CC4)cc3OC)nc2N1CC1CCCCC1` (stereo partly drawn) [ICT-0001567, 4-{[(4R)-5-(cyclohexylmethyl)-4-ethyl-1-methyl-4H,5H-[1,2,4]triazolo[4,3-f]pteridine-7-yl]amino}-N-{1-[2-(2,6-dioxopiperidine-3-yl)-4-methyl-1-oxo-1,2-dihydroptalazine-6-yl]piperidine-4-yl}-3-methoxybenzamide]: in the test on RPMI2650 (setting [2]), the IC50 is above 1000 nM. In addition, the DC50 on BRD4-NUT and at BRD4 was above 1000 nM in each case.

As for `CC[C@@H]1c2nnc(C)n2-c2cnc(Nc3ccc(C(=O)NC4CCN(CCCN5CCN(c6ccc7c(=O)n(C8CCC(=O)NC8=O)nc(C)c7c6)CC5)CC4)cc3OC)nc2N1CC1CCCCC1` (stereo partly drawn) [ICT-0001568, 4-{[(4R)-5-(cyclohexylmethyl)-4-ethyl-1-methyl-4H,5H-[1,2,4]triazolo[4,3-f]phteridine-7-yl]amino}-N-[1-(3-{4-[2-(2,6-dioxopiperidin-3-yl)-4-methyl-1-oxo-1,2-dihydroptalazine-6-yl}piperazine-1-il}piperidine-4-yl]piperidine-4-yl]-3-methoxybenzamide], the IC50 in the test with RPMI2650 (setting [2]) is above 1000 nM. Further, the DC50 on BRD4-NUT is above 1000 nM; at BRD4, below 100 nM.

On to `CC[C@@H]1c2nnc(C)n2-c2cnc(Nc3ccc(C(=O)NC4CCN(Cc5ccc(NC6CCC(=O)NC6=O)cc5)CC4)cc3OC)nc2N1CC1CCCCC1` (stereo partly drawn) [ICT-0001569, 4-{[(4R)-5-(cyclohexylmethyl)-4-ethyl-1-methyl-4H,5H-[1,2,4]triazolo[4,3-f]pteridine-7-yl]amino}-N-[1-({4-[(2,6-dioxopiperidin-3-yl)amino]phenyl}methyl)piperidine-4-yl]-3-methoxybenzamide], for which the IC50 with RPMI2650 (setting [1]) was above 1000 nM. In addition, the DC50 at BRD4-NUT and at BRD4 was above 1000 nM throughout.

On to `CC[C@@H]1c2nnc(C)n2-c2cnc(Nc3ccc(C(=O)NC4CCN(CCOCCOc5ccc(NC6CCC(=O)NC6=O)cc5F)CC4)cc3OC)nc2N1CC1CCCCC1` (stereo partly drawn) [ICT-0001570, 4-{[(4R)-5-(cyclohexylmethyl)-4-ethyl-1-methyl-4H,5H-[1,2,4]triazolo[4,3-f]pteridine-7-yl]amino}-N-{1-[2-(2-{4-[(2,6-dioxopiperidin-3-yl)amino]-2-fluorophenoxy}ethoxy)ethyl]piperidine-4-yl}-3-methoxybenzamide], for which the IC50 in the test with RPMI2650 (setting [1]) is above 1000 nM. The DC50 at BRD4-NUT and at BRD4 was above 1000 nM each time.

Turning to `CC[C@@H]1c2nnc(C)n2-c2cnc(Nc3ccc(C(=O)NC4CCN(C(=O)CCCCN5CCN(c6ccc(NC7CCC(=O)NC7=O)cc6F)CC5)CC4)cc3OC)nc2N1CC1CCCCC1` (stereo partly drawn) [ICT-0001571, 4-{[(4R)-5-(cyclohexylmethyl)-4-ethyl-1-methyl-4H,5H-[1,2,4]triazolo[4,3-f]pteridine-7-yl]amino}-N-{1-[5-(4-{4-[(2,6-dioxopiperidin-3-yl)amino]-2-fluorophenyl}piperazine-1-yl)pentanoyl]piperidine-4-yl}-3-methoxybenzamide], the IC50 with RPMI2650 (setting [1]) was above 1000 nM. For the same molecule, the DC50 at BRD4-NUT and on BRD4 was above 1000 nM in each case.

For `CC[C@@H]1c2nnc(C)n2-c2cnc(Nc3ccc(C(=O)NC4CCN(CCCN5CCN(c6ccc(NC7CCC(=O)NC7=O)cc6F)CC5)CC4)cc3OC)nc2N1CC1CCCCC1` (stereo partly drawn) [ICT-0001572, 4-{[(4R)-5-(cyclohexylmethyl)-4-ethyl-1-methyl-4H,5H-[1,2,4]triazolo[4,3-f]pteridine-7-yl]amino}-N-{1-[3-(4-{4-[(2,6-dioxopiperidin-3-yl)amino]-2-fluorophenyl}piperazine-1-yl)propyl]piperidine-4-yl}-3-methoxybenzamide], the IC50 in the test with RPMI2650 (setting [1]) was above 1000 nM. Moreover, the DC50 on BRD4-NUT and at BRD4 was above 1000 nM in each case.

As to `CC[C@@H]1c2nnc(C)n2-c2cnc(Nc3ccc(C(=O)N4CCN(c5ccc6c(=O)n(C7CCC(=O)NC7=O)nc(C)c6c5)CC4)cc3OC)nc2N1CC1CCCCC1` (stereo partly drawn) [ICT-0001576, 3-{6-[4-(4-{[(4R)-5-(cyclohexylmethyl)-4-ethyl-1-methyl-4H,5H-[1,2,4]triazolo[4,3-f]pteridine-7-yl]amino}-3-methoxybenzoyl)piperazine-1-yl]-4-methyl-1-oxo-1,2-dihydroptalazine-2-yl}piperidine-2,6-dione], the IC50 with RPMI2650 (setting [2]) was above 1000 nM. In addition, the DC50 on BRD4-NUT and on BRD4 was below 100 nM in each case.

With `CC[C@@H]1c2nnc(C)n2-c2cnc(Nc3ccc(C(=O)N4CCN(c5ccc6c(=O)n(C7CCC(=O)NC7=O)ncc6c5)CC4)cc3OC)nc2N1CC1CCCCC1` (stereo partly drawn) [ICT-0001577], in the test with RPMI2650 (setting [2]), the IC50 is above 1000 nM. Also, the DC50 at BRD4-NUT and at BRD4 was above 1000 nM throughout.

`CC[C@@H]1c2nnc(C)n2-c2cnc(Nc3ccc(C(=O)NC4CCN(C(=O)CCN5CCN(c6ccc(NC7CCC(=O)NC7=O)cc6F)CC5)CC4)cc3OC)nc2N1CC1CCCCC1` (stereo partly drawn) [ICT-0001578, 4-{[(4R)-5-(cyclohexylmethyl)-4-ethyl-1-methyl-4H,5H-[1,2,4]triazolo[4,3-f]pteridine-7-yl]amino}-N-{1-[3-(4-{4-[(2,6-dioxopiperidin-3-yl)amino]-2-fluorophenyl}piperazine-1-yl)propanoyl]piperidine-4-yl}-3-methoxybenzamide]: in the test with RPMI2650 (setting [1]), the IC50 lay within 100 to 1000 nM. Also, the DC50 on BRD4-NUT and on BRD4 was above 1000 nM each time.

`CC[C@@H]1c2nnc(C)n2-c2cnc(Nc3ccc(C(=O)N4CCN(CCNc5cccc6c(C)nn(C7CCC(=O)NC7=O)c(=O)c56)CC4)cc3OC)nc2N1CC1CCCCC1` (stereo partly drawn) [ICT-0001583, 3-(8-((2-(4-(4-(((R)-5-(cyclohexylmethyl)-4-ethyl-1-methyl-4,5-dihydro-[1,2,4]triazolo[4,3-f]pteridine-7-yl)amino)3-methoxybenzoyl)piperazine-1-yl)ethyl)amino)4-methyl-1-oxopthalazine-2(1H)-yl)piperidine-2,6-dione]: in the test with RPMI2650 (setting [2]), the IC50 is above 1000 nM. The DC50 at BRD4-NUT and on BRD4 was below 100 nM throughout.

As for `CC[C@@H]1c2nnc(C)n2-c2cnc(Nc3ccc(C(=O)N4CCN(c5cccc6c(C)nn(C7CCC(=O)NC7=O)c(=O)c56)CC4)cc3OC)nc2N1CC1CCCCC1` (stereo partly drawn) [ICT-0001584, 3-(8-(4-(4-(((R)-5-(cyclohexylmethyl)-4-ethyl-1-methyl-4,5-dihydro-[1,2,4]triazolo[4,3-f]pteridine-7-yl)amino)-3-methoxybenzoyl)piperazine-1-yl)-4-methyl-1-oxopthalazine-2(1H)-yl)piperidine-2,6-dione], the IC50 in the test on RPMI2650 (setting [2]) was below 100 nM. Also, the DC50 at BRD4-NUT and at BRD4 was below 100 nM throughout.

In the case of `CC[C@@H]1c2nnc(C)n2-c2cnc(Nc3ccc(C(=O)NC4CCN(C(=O)C5CCN(c6ccc7c(C)nn(C8CCC(=O)NC8=O)c(=O)c7c6)CC5)CC4)cc3OC)nc2N1CC1CCCCC1` (stereo partly drawn) [ICT-0001592], the IC50 in the test on RPMI2650 (setting [2]) was below 100 nM. The DC50 on BRD4-NUT and at BRD4 was below 100 nM each time.

On to `CC[C@@H]1c2nnc(C)n2-c2cnc(Nc3ccc(C(=O)N4CCN(CCNc5ccc6c(=O)n(C7CCC(=O)NC7=O)nc(C)c6c5)CC4)cc3OC)nc2N1CC1CCCCC1` (stereo partly drawn) [ICT-0001599, 3-(6-((2-(4-(4-(((R)-5-(cyclohexylmethyl)-4-ethyl-1-methyl-4,5-dihydro-[1,2,4]triazolo[4,3-f]pteridine-7-yl)amino)3-methoxybenzoyl)piperazine-1-yl)ethyl)amino)4-methyl-1-oxopthalazine-2(1H)-yl)piperidine-2,6-dione], for which the IC50 with RPMI2650 (setting [2]) is above 1000 nM. For the same molecule, the DC50 at BRD4-NUT and at BRD4 was below 100 nM each time.

Regarding `CC[C@@H]1c2nnc(C)n2-c2cnc(Nc3ccc(C(=O)N4CCN(CCNc5ccc6c(C)nn(C7CCC(=O)NC7=O)c(=O)c6c5)CC4)cc3OC)nc2N1CC1CCCCC1` (stereo partly drawn) [ICT-0001600, 3-(7-((2-(4-(4-(((R)-5-(cyclohexylmethyl)-4-ethyl-1-methyl-4,5-dihydro-[1,2,4]triazolo[4,3-f]pteridine-7-yl)amino)3-methoxybenzoyl)piperazine-1-yl)ethyl)amino)4-methyl-1-oxopthalazine-2(1H)-yl)piperidine-2,6-dione], the IC50 with RPMI2650 (setting [2]) was below 100 nM. Besides, the DC50 on BRD4-NUT and at BRD4 was below 100 nM in each case.
